According to patent publication US10253015B2, “Pyridinyl quinolinone derivatives as mutant-isocitrate dehydrogenase inhibitors” (FORMA TM2, Inc., priority 2014, dated 2019):

Target: IDH1-R132H recombinant protein (Homo sapiens (Human), UniProt O75874, R132H)
Experiment: IDH1-R132H enzymatic assay
Type: biochemical
Details: inhibition of NADPH consumption, diaphorase/resazurin readout; read-out: Enzyme IDH1 R132H Range IC50
Procedure: Assays were performed in a 384-well black plate. […] After the plate was centrifuged briefly, an aliquot of 10 μL of 2 mM α-ketoglutarate and 20 μM NADPH solution prepared in assay buffer was then added to each well and the reaction was maintained at 25° C. for 45 minutes. An aliquot of 10 μL of diaphorase solution (0.15 U/mL diaphorase and 30 μM Resazurin in assay buffer) was added to each well. […] The IC50 of a given compound was calculated by fitting the dose response curve of inhibition of NADPH consumption at a given concentration with the four parameter logistic equation.

IDH1-R132H recombinant protein, sequence (O75874 whole entry R132H): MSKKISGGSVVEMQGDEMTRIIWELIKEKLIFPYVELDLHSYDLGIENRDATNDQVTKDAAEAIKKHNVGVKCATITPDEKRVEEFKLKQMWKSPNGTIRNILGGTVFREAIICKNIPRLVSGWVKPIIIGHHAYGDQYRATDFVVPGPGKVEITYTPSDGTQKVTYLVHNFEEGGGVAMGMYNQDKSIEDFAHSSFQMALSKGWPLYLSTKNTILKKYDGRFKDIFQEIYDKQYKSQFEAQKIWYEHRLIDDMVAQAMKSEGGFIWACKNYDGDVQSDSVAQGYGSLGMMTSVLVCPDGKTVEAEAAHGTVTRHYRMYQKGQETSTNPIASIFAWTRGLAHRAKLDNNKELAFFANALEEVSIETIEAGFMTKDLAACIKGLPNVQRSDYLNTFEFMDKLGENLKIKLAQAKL

Structure (SMILES)	IC50
N#Cc1ccc(NCc2cc3cc(Cl)ccc3[nH]c2=O)cn1 [Compound I-78, 5-{[(6-chloro-2-oxo-1,2-dihydroquinolin-3-yl)methyl]amino}pyridine-2-carbonitrile]	> 10000 nM
CC(C)c1cccnc1NCc1cc2cc(Cl)ccc2[nH]c1=O [Compound I-68, 6-chloro-3-({[3-(propan-2-yl)pyridin-2-yl]amino}methyl)-1,2-dihydroquinolin-2-one]	100 to 1000 nM
CC(C)CN(C)c1nc(NCc2cc3cc(Cl)ccc3[nH]c2=O)ccc1C#N [Compound I-65, 6-{[(6-chloro-2-oxo-1,2-dihydroquinolin-3-yl)methyl]amino}-2-[methyl(2-methylpropyl)amino]pyridine-3-carbonitrile]	> 10000 nM
Cc1n[nH]c(C)c1-c1ccnc(N[C@@H](C)c2cc3cc(Cl)ccc3[nH]c2=O)c1F [Compound I-51, 6-chloro-3-[(1S)-1-{[4-(3,5-dimethyl-1H-pyrazol-4-yl)-3-fluoropyridin-2-yl]amino}ethyl]-1,2-dihydroquinolin-2-one]	1000 to 10000 nM
Cc1cscc1-c1ccnc(N[C@@H](C)c2cc3cc(Cl)ccc3[nH]c2=O)c1F [Compound I-46, 6-chloro-3-[(1S)-1-{[3-fluoro-4-(4-methylthiophen-3-yl)pyridin-2-yl]amino}ethyl]-1,2-dihydroquinolin-2-one]	1000 to 10000 nM
Cc1nc(NCc2cc3cc(Cl)c(OCc4ccccn4)cc3[nH]c2=O)ccc1C#N [Compound I-84, 6-({[6-chloro-2-oxo-7-(pyridin-2-ylmethoxy)-1,2-dihydroquinolin-3-yl]methyl}amino)-2-methylpyridine-3-carbonitrile]	100 to 1000 nM
Cc1cc(N2CCOC2=O)cc(N[C@@H](C)c2cc3cc(Cl)ccc3[nH]c2=O)n1 [Compound I-12, 6-chloro-3-[(1S)-1-{[6-methyl-4-(2-oxo-1,3-oxazolidin-3-yl)pyridin-2-yl]amino}ethyl]-1,2-dihydroquinolin-2-one]	100 to 1000 nM
Cc1cc(C)nc(NCc2cc3cc(Cl)ccc3[nH]c2=O)c1 [Compound I-69, 6-chloro-3-{[(4,6-dimethylpyridin-2-yl)amino]methyl}-1,2-dihydroquinolin-2-one]	1000 to 10000 nM
C[C@H](Nc1cccc(N2CCCS2(=O)=O)n1)c1cc2cc(Cl)ccc2[nH]c1=O [Compound I-35, 2-(6-{[(1S)-1-(6-chloro-2-oxo-1,2-dihydroquinolin-3-yl)ethyl]amino}pyridin-2-yl)-1λ^6,2-thiazolidine-1,1-dione]	1000 to 10000 nM
Cc1cn(-c2ccnc(N[C@@H](C)c3cc4cc(Cl)ccc4[nH]c3=O)c2F)cn1 [Compound I-38, 6-chloro-3-[(1S)-1-{[3-fluoro-4-(4-methyl-1H-imidazol-1-yl)pyridin-2-yl]amino}ethyl]-1,2-dihydroquinolin-2-one]	1000 to 10000 nM
COc1ccnc(NCc2cc3cc(Cl)ccc3[nH]c2=O)c1 [Compound I-70, 6-chloro-3-{[(4-methoxypyridin-2-yl)amino]methyl}-1,2-dihydroquinolin-2-one]	1000 to 10000 nM
CC(C)n1nccc1-c1ccnc(N[C@@H](C)c2cc3cc(Cl)ccc3[nH]c2=O)c1F [Compound I-57, 6-chloro-3-[(1S)-1-({3-fluoro-4-[1-(propan-2-yl)-1H-pyrazol-5-yl]pyridin-2-yl}amino)ethyl]-1,2-dihydroquinolin-2-one]	> 10000 nM
Cc1nc(NC2(c3cc4cc(Cl)ccc4[nH]c3=O)CC2)ccc1C#N [Compound I-31, 6-{[1-(6-chloro-2-oxo-1,2-dihydroquinolin-3-yl)cyclopropyl]amino}-2-methylpyridine-3-carbonitrile]	100 to 1000 nM
C[C@H](Nc1nccc(-n2ccnc2)c1F)c1cc2cc(Cl)ccc2[nH]c1=O [Compound I-37, 6-chloro-3-[(1S)-1-{[3-fluoro-4-(1H-imidazol-1-yl)pyridin-2-yl]amino}ethyl]-1,2-dihydroquinolin-2-one]	1000 to 10000 nM
C[C@H](Nc1cc(F)cc(N2CCOC2=O)n1)c1cc2cc(Cl)ccc2[nH]c1=O [Compound I-16, 6-chloro-3-[(1S)-1-{[4-fluoro-6-(2-oxo-1,3-oxazolidin-3-yl)pyridin-2-yl]amino}ethyl]-1,2-dihydroquinolin-2-one]	1000 to 10000 nM
COc1ccc2[nH]c(=O)c(CNc3cc(C)ccn3)cc2c1 [Compound I-82, 6-methoxy-3-{[(4-methylpyridin-2-yl)amino]methyl}-1,2-dihydroquinolin-2-one]	> 10000 nM
C[C@H](Nc1nccc(-c2cccn2C)c1F)c1cc2cc(Cl)ccc2[nH]c1=O [Compound I-42, 6-chloro-3-[(1S)-1-{[3-fluoro-4-(1-methyl-1H-pyrrol-2-yl)pyridin-2-yl]amino}ethyl]-1,2-dihydroquinolin-2-one]	1000 to 10000 nM
Cc1c(-c2ccnc(N[C@@H](C)c3cc4cc(Cl)ccc4[nH]c3=O)c2F)cnn1C [Compound I-45, 6-chloro-3-[(1S)-1-{[4-(1,5-dimethyl-1H-pyrazol-4-yl)-3-fluoropyridin-2-yl]amino}ethyl]-1,2-dihydroquinolin-2-one]	1000 to 10000 nM

Structure (SMILES)	IC50
N#Cc1ccc(NCc2cc3cc(Cl)ccc3[nH]c2=O)nc1Cl [Compound I-62, 2-chloro-6-{[(6-chloro-2-oxo-1,2-dihydroquinolin-3-yl)methyl]amino}pyridine-3-carbonitrile]	> 10000 nM
C[C@H](Nc1nccc(-c2ccnn2C2CCCCO2)c1F)c1cc2cc(Cl)ccc2[nH]c1=O (stereo partly drawn) [Compound I-55, 6-chloro-3-[(1S)-1-({3-fluoro-4-[1-(oxan-2-yl)-1H-pyrazol-5-yl]pyridin-2-yl}amino)ethyl]-1,2-dihydroquinolin-2-one]	> 10000 nM
Cc1cc(NCCO)cc(N[C@@H](C)c2cc3cc(Cl)ccc3[nH]c2=O)n1 [Compound I-33, 6-chloro-3-[(1S)-1-({4-[(2-hydroxyethyl)amino]-6-methylpyridin-2-yl}amino)ethyl]-1,2-dihydroquinolin-2-one]	1000 to 10000 nM
O=c1[nH]c2ccc(Cl)cc2cc1CNc1cccnc1O [Compound I-76, 6-chloro-3-{[(2-hydroxypyridin-3-yl)amino]methyl}-1,2-dihydroquinolin-2-one]	1000 to 10000 nM
O=c1[nH]c2ccc(Cl)cc2cc1CNc1ccc(F)cn1 [Compound I-71, 6-chloro-3-{[(5-fluoropyridin-2-yl)amino]methyl}-1,2-dihydroquinolin-2-one]	1000 to 10000 nM
O=c1[nH]c2ccc(Cl)cc2cc1CNc1ccc(C(F)(F)F)cn1 [Compound I-77, 6-chloro-3-({[5-(trifluoromethyl)pyridin-2-yl]amino}methyl)-1,2-dihydroquinolin-2-one]	> 10000 nM
CC(C)[C@H]1COC(=O)N1c1cccc(N[C@H](C)c2cc3cc(Cl)ccc3[nH]c2=O)n1 [Compound I-20, 6-chloro-3-[(1R)-1-({6-[(4S)-2-oxo-4-(propan-2-yl)-1,3-oxazolidin-3-yl]pyridin-2-yl}amino)ethyl]-1,2-dihydroquinolin-2-one]	> 10000 nM
COc1nc(C#N)ccc1NCc1cc2cc(Cl)ccc2[nH]c1=O [Compound I-61, 5-{[(6-chloro-2-oxo-1,2-dihydroquinolin-3-yl)methyl]amino}-6-methoxypyridine-2-carbonitrile]	< 100 nM
COc1nc(NCc2cc3cc(Cl)ccc3[nH]c2=O)ccc1C#N [Compound I-66, 6-{[(6-chloro-2-oxo-1,2-dihydroquinolin-3-yl)methyl]amino}-2-methoxypyridine-3-carbonitrile]	> 10000 nM
N#Cc1ccc(NCc2cc3cc(Cl)ccc3[nH]c2=O)nc1N1CCOC1=O [Compound I-63, 6-{[(6-chloro-2-oxo-1,2-dihydroquinolin-3-yl)methyl]amino}-2-(2-oxo-1,3-oxazolidin-3-yl)pyridine-3-carbonitrile]	> 10000 nM
Cc1nc(NC(C)(C)c2cc3cc(Cl)ccc3[nH]c2=O)ccc1C#N [Compound I-32, 6-{[2-(6-chloro-2-oxo-1,2-dihydroquinolin-3-yl)propan-2-yl]amino}-2-methylpyridine-3-carbonitrile]	100 to 1000 nM
Cc1c(N2CCOC2=O)ccnc1N[C@@H](C)c1cc2cc(Cl)ccc2[nH]c1=O [Compound I-15, 6-chloro-3-[(1S)-1-{[3-methyl-4-(2-oxo-1,3-oxazolidin-3-yl)pyridin-2-yl]amino}ethyl]-1,2-dihydroquinolin-2-one]	100 to 1000 nM
COC(=O)c1cccc(NCc2cc3cc(Cl)ccc3[nH]c2=O)n1 [Compound I-73, methyl 6-{[(6-chloro-2-oxo-1,2-dihydroquinolin-3-yl)methyl]amino}pyridine-2-carboxylate]	1000 to 10000 nM
CC(C)C1CCCN1c1nc(NCc2cc3cc(Cl)ccc3[nH]c2=O)ccc1C#N (stereo not drawn) [Compound I-64, 6-{[(6-chloro-2-oxo-1,2-dihydroquinolin-3-yl)methyl]amino}-2-[2-(propan-2-yl)pyrrolidin-1-yl]pyridine-3-carbonitrile]	> 10000 nM
O=c1[nH]c2ccc(Cl)cc2cc1CNc1cc(C(F)(F)F)ccn1 [Compound I-79, 6-chloro-3-({[4-(trifluoromethyl)pyridin-2-yl]amino}methyl)-1,2-dihydroquinolin-2-one]	> 10000 nM
Cc1ccnc(NCc2cc3cc(Cl)ccc3[nH]c2=O)c1 [Compound I-74, 6-chloro-3-{[(4-methylpyridin-2-yl)amino]methyl}-1,2-dihydroquinolin-2-one]	1000 to 10000 nM
N#Cc1ccnc(NCc2cc3cc(Cl)ccc3[nH]c2=O)c1 [Compound I-72, 2-{[(6-chloro-2-oxo-1,2-dihydroquinolin-3-yl)methyl]amino}pyridine-4-carbonitrile]	1000 to 10000 nM
Cc1cc2cc(CNc3ccc(C#N)cn3)c(=O)[nH]c2cc1C [Compound I-80, 6-{[(6,7-dimethyl-2-oxo-1,2-dihydroquinolin-3-yl)methyl]amino}pyridine-3-carbonitrile]	100 to 1000 nM
